Read-outs that look alike come from different tables or passages of the source.
What was measured:
[1] = system: Saccharomyces cerevisiae yeast strain EKY3 (top1Δ), YCpGAL-1hTOP1A653P; assay: Yeast in-vivo spot test, A653P mutant; type: cell-based; conditions: 45 μM
Description: (§1) To identify camptothecin derivatives that overcome the resistance to camptothecin induced by point mutations on topisomerase I DNA in the Saccharomyces cerevisiae yeast model, an in-vivo and an in-vitro system were used in parallel.
(§2) A number of mutations are present close to the active site of the enzyme (tyrosine 723) and others around position 363 which corresponds to a very well conserved region.
(§3) Before effecting the transformation of the yeasts, the yeasts were unfrozen and plated with a sterile bent glass rod in 90-mm plates containing sterile solid YPDa medium (10 g of yeast extract, 20 g of peptone, 20 g of dextrose, 0.7 g of adenine, 20 g of glucose, 20 g of agar per liter). Colonies formed after 48-72 hours in an incubator at 30° C.
(§4) One day before the transformation, a single yeast colony sample was taken with a sterile Gilson tip and inoculated in 5 ml of sterile liquid YPDA medium (the above-mentioned medium without agar). […]
(§5) Before treating the yeasts with the camptothecin derivatives (in-vivo spot test), the transformed colonies were inoculated with a Gilson tip in 5 ml sterile liquid CM medium. […] On the day after, the optical density of the colonies was measured at 600 nm and a dilution of the colonies was performed in order to obtain an optical density of 0.3. […] The colonies were incubated at 30° C. for 48-72 hours and analysed macroscopically.

[2] = system: NCl—H460 non-microcytoma lung cancer cells; assay: Cytotoxic activity on NCl—H460 cells (sulforodamine B); conditions: for IC50: read-out: IC50 (product concentration that inhibits cell survival by 50%), 2 hours exposure, 72 hours recovery, mean ± SD
Procedure: NCl—H460 non-microcytoma lung cancer cells were kept in RPMI 1640 culture medium containing 10% FCS and 1% glutamine. The cytotoxicity test to analyse the activity of the molecules was performed as follows. The cells were seeded in a volume of 250 μl in 96-well plates and incubated for 2 hours at 37° C. with scalar concentrations of the products in a humidified atmosphere containing 5% CO2. At the end of the incubation, the molecules were removed by overturning the plates and adding sterile buffered saline solution (PBS) three times. The RPMI 1640 culture medium containing 10% FCS (200 μl) was added to the wells and the plates were incubated for another 72 hours. At the end of the incubation, the plates were overturned again and dried on paper, before adding 200 μl of PBS and 50 μl of 80% TCA. The plates were incubated again in ice for at least 1 hour. The TCA was removed by overturning the plates and the plates were first dried on paper and then washed three times by immersion in distilled water and overturning. The plates were dried first on paper and then in a thermostatically regulated incubator at 60° C. for 10 min. 200 μl of 0.4% sulforodamine B in 1% acetic acid were added to all wells. The plates were incubated at room temperature for another 30 min. The sulforodamine B was removed by overturning, the plates were washed by immersion in 1% acetic acid three times and then dried first on blotting paper and then in the thermostat at 60° C. for 10 min. Lastly, 200 μl of Tris base 10 mM were added to all wells and the plates were subjected to stirring for at least 20 min. The optical density was measured with a Multiskan spectrophotometer at 540 nm.

[3] = system: Saccharomyces cerevisiae yeast strain EKY3 (top1Δ), Topoisomerase I wild-type (TOP1); assay: Yeast in-vivo spot test, wild-type TOP1; type: cell-based; conditions: 45 μM
Procedure: One day before the transformation, a single yeast colony sample was taken with a sterile Gilson tip and inoculated in 5 ml of sterile liquid YPDA medium (the above-mentioned medium without agar). The colony was grown overnight under stirring at 30° C. […]

[4] = system: Saccharomyces cerevisiae yeast strain EKY3 (top1Δ), YCpGAL1-hTOP1G363C; assay: Yeast in-vivo spot test, G363C mutant; type: cell-based; conditions: 45 μM
Description: as §1, §2, §3, §4, §5

[5] = system: Saccharomyces cerevisiae yeast strain EKY3 (top1Δ), YCpGAL1-hTOP1K720E; assay: Yeast in-vivo spot test, K720E mutant; type: cell-based; conditions: 45 μM
Description: as §1, §2, §3, §4, §5

[6] = system: MKN-28 human gastric carcinoma; conditions: for LCK (1000 mm^3) (log cell kill): q4dx4; for TVI % (tumor volume inhibition): q4dx4, 20 days after last treatment
Procedure: Tumor fragments were inoculated on both flanks at day 0. Treatment started when tumors were just palpable. The molecule was given by oral route and intravenously according to the schedule q4d×4. During the treatment, animals were inspected every day for mortality. Physical appearance, behavior and general and local clinical signs of the mice will be observed daily. Any deviation from normality was recorded. All animals were weighed during the whole treatment period, in order to calculate the percent body weight loss due to the treatment.
Tumor volume inhibition % in treated over control tumors was evaluated 20 days after last treatment. To determine the antitumor activity of the drug, tumor diameters was measured biweekly with a Vernier caliper. The formula TV (mm^3)=[length (mm)×width (mm)^2]/2 was used, where the width and the length are the shortest and the longest diameters of each tumor, respectively.
When tumors reached a weight of about 2 g, the mice were sacrificed by cervical dislocation. LCK (log cell kill) as index of efficacy was calculated to evaluate the persistence of the effect of the molecule at the end of the treatment.

7-[(N′, N″-tert-butoxycarbonyl)-spermidine-imino-methyl]-20S-camptothecin [ST2598]
Phenotype of mutated enzyme A653P towards the derivative [1]: resistant | Cytotoxicity on the lung cancer line (in words) [2]: very potent cytotoxicity | IC50 [2]: 15 ± 2 nM | Phenotype of Topoisomerase I wild-type towards the derivative [3]: sensitivity | Phenotype of mutated enzyme G363C towards the derivative [4]: resistant

7-[(N′,N″,N′″-tert-butoxycarbonyl)-spermine-imino-methyl]-20S-camptothecin [ST2544]
Phenotype of K720E mutant towards the derivative [5]: sensitivity | Phenotype of mutated enzyme A653P towards the derivative [1]: resistant | IC50 [2]: 12.9 ± 1.8 nM | LCK (1000 mm^3) (log cell kill) ([6]; iv, 1 mg/kg): 0.2 | TVI % (tumor volume inhibition) ([6]; iv, 1 mg/kg): 34% | LCK (1000 mm^3) (log cell kill) ([6]; iv, 2 mg/kg): 0.2 | TVI % (tumor volume inhibition) ([6]; iv, 2 mg/kg): 36% | LCK (1000 mm^3) (log cell kill) ([6]; iv, 4 mg/kg): 0.8 | TVI % (tumor volume inhibition) ([6]; iv, 4 mg/kg): 66% | LCK (1000 mm^3) (log cell kill) ([6]; p.o., 1 mg/kg): 0.1 | TVI % (tumor volume inhibition) ([6]; p.o., 1 mg/kg): 28% | LCK (1000 mm^3) (log cell kill) ([6]; p.o., 2 mg/kg): 0.5 | TVI % (tumor volume inhibition) ([6]; p.o., 2 mg/kg, 2 mg/kg): 62% | TVI % (tumor volume inhibition) ([6]; p.o., 4 mg/kg, 4 mg/kg): 72% | Phenotype of Topoisomerase I wild-type towards the derivative [3]: sensitivity | Phenotype of mutated enzyme G363C towards the derivative [4]: resistant

7-[(N′,N″-Di-benzyloxycarbonyl)-spermidineiminomethyl]-20S-camptothecin [ST2729]
IC50 [2]: 34 ± 7 nM

7-[N-(N′-tert-butoxcarbonyl)-putrescinimino-methyl]-20S-camptothecin [ST2615]
IC50 [2]: > 200 nM

CCC1(O)C(=O)OCc2c1cc1n(c2=O)Cc2c-1nc1ccccc1c2C=NOCCCNC(=O)OC(C)(C)C (stereo not drawn) [ST2664, 7-[3-(N-tert-butoxycarbonyl)-amino-1-propoxyiminomethyl]20S-camptothecin]
IC50 [2]: > 200 nM

CC[C@@]1(O)C(=O)OCc2c1cc1n(c2=O)Cc2c-1nc1ccccc1c2C=NCC1CCN(C(=O)OC(C)(C)C)CC1 [ST2665]
IC50 [2]: > 200 nM

CCC1(O)C(=O)OCc2c1cc1n(c2=O)Cc2c-1nc1ccccc1c2C=NOCCCN(CCCCNC(=O)OC(C)(C)C)C(=O)OC(C)(C)C (centres unmarked) [ST2872]
IC50 [2]: > 200 nM

— patent US7612081B2 (priority 2003, dated 2009)
